According to patent publication US12281116B2, “HTT modulators for treating Huntington's disease” (CHDI Foundation, Inc., priority 2021, dated 2025):

System: tHTT (total HTT protein)
Test: Time-resolved FRET (HTRF) assay: Q48-Huntingtin and total-Huntingtin detection in GEN020 hESC lysates
Type: cell-based
Conditions: tHTT activity; human embryonic stem cells GEN020 (mutant 48 Q repeat allele); test compounds 48 hours; read-out: HTT Lowering Activity (HTRF)
Procedure: Time-resolved FRET assay: Q48-Huntingtin and total-Huntington detection Detection of endogenous HTT protein in cell lysates was performed using a protocol adapted from Weiss et al. See Weiss A et al. (2009). Single-step detection of mutant huntingtin in animal and human tissues: a bioassay for Huntington's disease. Anal. Biochem. 395(1): 8-15.
The multiplex assay was performed in human embryonic stem cells (GEN020 hESCs with mutant 48 Q repeat allele) which have been derived by Genea Biocells from human blastocysts of HD donors. Bradley C K et al. (2011). Derivation of Huntington's disease-affected human embryonic stem cell lines, Stem Cells Dev. 2011 March; 20(3):495-502. Cells were plated into 384-well collagen coated plates (10,000 cells per well) and left to adhere for 24 hours, test compounds were then added for 48 hours (37° C., 5% CO2), cells were then lysed, and the lysate was transferred to a black 384-well assay plate.
The assay plate included a combination of HTRF labelled monoclonal antibodies added to recognize discreet areas of the HTT protein, the Tb “donor” antibody (2B7-Tb: 0.2 ng/well) recognizes a sequence at the N-terminus of the protein, an Alexa488 “acceptor 1” antibody (MW1-Alexa488: 30 ng/well) recognizes an area in the polyQ region, whereas a d2 “acceptor 2” antibody (MAB2166-d2: 6 ng/well) recognizes a sequence beyond the polyQ region. These detection reagents were incubated with the cell lysate at room temperature for 4-6 hours before having their fluorescence quantified at 615 nm (donor) and 535 nm and 665 nm (acceptor 1 and 2 respectively). The donor/acceptor ratio between these signals indicated the relative quantities of mHTT and tHTT.
Results for various compounds described herein are provided in the Tables below. tHTT activity in this assay is categorized as 10-20 μM (−); 1-10 μM (+); 0.5-1 μM (++); 0.1-0.5 μM (+++); <0.1 μM (++++).

## Cc1cn2cc(NC(=O)c3cnc(N4CC5C[C@@]5(N)C4)cn3)cc(F)c2n1 (stereo partly drawn) [Example 35, 5-((1S)-1-amino-3-azabicyclo[3.1.0]hexan-3-yl)-N-(8-fluoro-2-methylimidazo[1,2-a]pyridin-6-yl)pyrazine-2-carboxamide]
  IC50: 500 to 1000 nM

## CCNC1C2CN(c3cnc(C(=O)Nc4cc(F)c5nc(C)cn5c4)cn3)CC21 (centres unmarked) [Example 23, 5-(6-(ethylamino)-3-azabicyclo[3.1.0]hexan-3-yl)-N-(8-fluoro-2-methylimidazo[1,2-a]pyridin-6-yl)pyrazine-2-carboxamide]
  IC50: < 100 nM

## COc1nc(NC(=O)c2cnc(N3CC4C(N)C4C3)cn2)cn2cc(C)nc12 (centres unmarked) [Example 26]
  IC50: < 100 nM

## Cc1cn2cc(NC(=O)c3cnc(N4CC[C@H](CNC5CC5)C4)cn3)c(F)c(C)c2n1 [Example 31, 5-[(3R)-3-[(cyclopropylamino)methyl]pyrrolidin-1-yl]-N-(7-fluoro-2,8-dimethyl-imidazo[1,2-a]pyridin-6-yl)pyrazine-2-carboxamide]
  IC50: < 100 nM

## CCOc1cc2nn(C)cc2cc1NC(=O)c1cnc(N2CC(CN3CC(F)C3)C2)cn1 [Example 17]
  IC50: 100 to 500 nM

## Cc1cn2cc(NC(=O)c3cnc(N4C[C@@H](C)[C@H](NC5CC5)C4)cn3)cc(F)c2n1 [Example 13, 5-((3S,4R)-3-(cyclopropylamino)-4-methylpyrrolidin-1-yl)-N-(8-fluoro-2-methylimidazo[1,2-a]pyridin-6-yl)pyrazine-2-carboxamide]
  IC50: 100 to 500 nM

## Cc1cn2cc(NC(=O)c3cnc(N4CC5C(C4)C5N4CCCC4)cn3)cc(F)c2n1 (centres unmarked) [Example 32, N-(8-Fluoro-2-methyl-imidazo[1,2-a]pyridin-6-yl)-5-(6-pyrrolidin-1-yl-3-azabicyclo[3.1.0]hexan-3-yl)pyrazine-2-carboxamide]
  IC50: 500 to 1000 nM

## CN[C@@H]1CCN(c2cnc(C(=O)Nc3cc(F)c4nc(C)nn4c3)cn2)C1 [Example 19, (R)-N-(8-fluoro-2-methyl-[1,2,4]triazolo[1,5-a]pyridin-6-yl)-5-(3-(methylamino)pyrrolidin-1-yl)pyrazine-2-carboxamide]
  IC50: 100 to 500 nM

## Cc1cn2cc(NC(=O)c3cnc(N4CC(CNC5CC5)CC4=O)cn3)cc(F)c2n1 (single isomer, unassigned) [Example 41, (S*)-5-(4-((cyclopropylamino)methyl)-2-oxopyrrolidin-1-yl)-N-(8-fluoro-2-methylimidazo[1,2-a]pyridin-6-yl)pyrazine-2-carboxamide]
  IC50: 500 to 1000 nM

## Cc1cn2cc(NC(=O)c3cnc(N4CC[C@@H](NC5CC5)C4=O)cn3)cc(F)c2n1 [Example 43, (R)-5-(3-(cyclopropylamino)-2-oxopyrrolidin-1-yl)-N-(8-fluoro-2-methylimidazo[1,2-a]pyridin-6-yl)pyrazine-2-carboxamide]
  IC50: 100 to 500 nM

## COCCOc1cc2nn(C)cc2cc1NC(=O)c1cnc(N2CC[C@@H](NC3CC3)C2)cn1 [Example 9, (R)-5-(3-(cyclopropylamino)pyrrolidin-1-yl)-N-(6-(2-methoxyethoxy)-2-methyl-2H-indazol-5-yl)pyrazine-2-carboxamide]
  IC50: 100 to 500 nM

## Cc1cn2cc(NC(=O)c3cnc(N4CC5C(N)C5C4)cn3)c(F)c(C)c2n1 (centres unmarked) [Example 27]
  IC50: 100 to 500 nM

## Cc1cn2cc(NC(=O)c3cnc(N4CC5C(N)C5C4)cn3)nc(C)c2n1 (centres unmarked) [Example 25]
  IC50: 100 to 500 nM

## Cc1cn2cc(NC(=O)c3cnc(N4CC[C@H](NC5CC5)C4=O)cn3)cc(F)c2n1 [Example 44, (S)-5-(3-(cyclopropylamino)-2-oxopyrrolidin-1-yl)-N-(8-fluoro-2-methylimidazo[1,2-a]pyridin-6-yl)pyrazine-2-carboxamide]
  IC50: 100 to 500 nM

## Cn1cc2cc(NC(=O)c3cnc(N4CC[C@@H](NC5CC5)C4)cn3)c(OCC3CCOCC3)cc2n1 [Example 6, (R)-5-(3-(cyclopropylamino)pyrrolidin-1-yl)-N-(2-methyl-6-((tetrahydro-2H-pyran-4-yl)methoxy)-2H-indazol-5-yl)pyrazine-2-carboxamide]
  IC50: 500 to 1000 nM

## Cc1cn2cc(NC(=O)c3cnc(-n4cc(CNC5CC5)cn4)cn3)cc(F)c2n1 [Example 46, 5-(4-((Cyclopropylamino)methyl)-1H-pyrazol-1-yl)-N-(8-fluoro-2-methylimidazo[1,2-a]pyridin-6-yl)pyrazine-2-carboxamide]
  IC50: 500 to 1000 nM

## COc1cc2nn(C)cc2cc1NC(=O)c1cnc(N2CC3C(N)C3C2)cn1 (centres unmarked) [Example 30, 5-(6-Amino-3-azabicyclo[3.1.0]hexan-3-yl)-N-(6-methoxy-2-methyl-indazol-5-yl)pyrazine-2-carboxamide]
  IC50: < 100 nM

## Cc1nc2c(F)cc(NC(=O)c3cnc(N(C)C4CCNCC4)cn3)cc2o1 [Example 14, N-(4-fluoro-2-methylbenzo[d]oxazol-6-yl)-5-(methyl(piperidin-4-yl)amino)pyrazine-2-carboxamide]
  IC50: 100 to 500 nM

## Cc1cn2cc(NC(=O)c3cnc(N4CC(CN5CC(OCC(=O)NCCC6(CCN=[N+]=[N-])N=N6)C5)C4)cn3)cc(F)c2n1 [Example 45, 5-[3-[[3-[2-[2-[3-(2-azidoethyl)diazirin-3-yl]ethylamino]-2-oxo-ethoxy]azetidin-1-yl]methyl]azetidin-1-yl]-N-(8-fluoro-2-methyl-imidazo[1,2-a]pyridin-6-yl)pyrazine-2-carboxamide]
  IC50: 500 to 1000 nM

## CN[C@@H]1CCN(c2cnc(C(=O)Nc3cn4cc(C)nc4c(F)c3C)cn2)C1 [Example 21, (R)-N-(8-fluoro-2,7-dimethylimidazo[1,2-a]pyridin-6-yl)-5-(3-(methylamino)pyrrolidin-1-yl)pyrazine-2-carboxamide]
  IC50: 100 to 500 nM

## CNC1C2CN(c3cnc(C(=O)Nc4cc(F)c5nc(C)cn5c4)cn3)CC21 (centres unmarked) [Example 29, N-(8-Fluoro-2-methyl-imidazo[1,2-a]pyridin-6-yl)-5-[6-(methylamino)-3-azabicyclo[3.1.0]hexan-3-yl]pyrazine-2-carboxamide]
  IC50: < 100 nM

## CCNC1C2CN(c3cnc(C(=O)Nc4cn5cc(C)nc5c(OC)n4)cn3)CC21 (centres unmarked) [Example 34, 5-(6-(ethylamino)-3-azabicyclo[3.1.0]hexan-3-yl)-N-(8-methoxy-2-methylimidazo[1,2-a]pyrazin-6-yl)pyrazine-2-carboxamide]
  IC50: 100 to 500 nM

## Cc1cn2cc(NC(=O)c3cnc(N4CC5C(C4)C5NC4CC4)cn3)cc(F)c2n1 (centres unmarked) [Example 37, 5-[6-(Cyclopropylamino)-3-azabicyclo[3.1.0]hexan-3-yl]-N-(8-fluoro-2-methyl-imidazo[1,2-a]pyridin-6-yl)pyrazine-2-carboxamide]
  IC50: 100 to 500 nM

## Cc1cn2cc(NC(=O)c3cnc(N4CCC(C)(N)C4)cn3)cc(F)c2n1 (racemic) [Example 42, 5-(3-Amino-3-methyl-pyrrolidin-1-yl)-N-(8-fluoro-2-methyl-imidazo[1,2-a]pyridin-6-yl)pyrazine-2-carboxamide]
  IC50: 100 to 500 nM

## CN1CCCC2(C1)CN(c1cnc(C(=O)Nc3cc4cn(C)nc4cc3OCc3ccccc3)cn1)C2 [Example 10, N-(6-(benzyloxy)-2-methyl-2H-indazol-5-yl)-5-(6-methyl-2,6-diazaspiro[3.5]nonan-2-yl)pyrazine-2-carboxamide]
  IC50: 100 to 500 nM

## CN[C@@H]1CCN(c2cnc(C(=O)Nc3cc(OC)c4nc(C)oc4c3)cn2)C1 [Example 22, (R)-N-(4-methoxy-2-methylbenzo[d]oxazol-6-yl)-5-(3-(methylamino)pyrrolidin-1-yl)pyrazine-2-carboxamide]
  IC50: 100 to 500 nM
